Reference: PubChem BioAssay (NCI)
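Five concentrations, 48 hours, 96-well plates. GI50: concentration for 50% inhibition of growth. At the TGI there is no net growth.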

Columns and labels:
Assay in all cases: growth of human tumour cells (NCI), 48 h
786-0 renal = system: 786-0 renal
A498 renal = system: A498 renal
A549 NSCLC = system: A549 NSCLC
ACHN renal = system: ACHN renal
BT-549 breast = system: BT-549 breast
CAKI-1 renal = system: CAKI-1 renal
CCRF-CEM leukemia = system: CCRF-CEM leukemia
COLO 205 colon = system: COLO 205 colon
DU-145 prostate = system: DU-145 prostate
EKVX NSCLC = system: EKVX NSCLC
HCC-2998 colon = system: HCC-2998 colon
HCT-116 colon = system: HCT-116 colon
HCT-15 colon = system: HCT-15 colon
HL-60(TB) leukemia = system: HL-60(TB) leukemia
HOP-62 NSCLC = system: HOP-62 NSCLC
HOP-92 NSCLC = system: HOP-92 NSCLC
HS 578T breast = system: HS 578T breast
HT29 colon = system: HT29 colon
K-562 leukemia = system: K-562 leukemia
KM12 colon = system: KM12 colon
LOX IMVI melanoma = system: LOX IMVI melanoma
M14 melanoma = system: M14 melanoma
MALME-3M melanoma = system: MALME-3M melanoma
MCF7 breast = system: MCF7 breast
MDA-MB-231 breast = system: MDA-MB-231 breast
MDA-MB-435 = system: MDA-MB-435
MOLT-4 leukemia = system: MOLT-4 leukemia
NCI-H23 lung = system: NCI-H23 lung
NCI-H460 lung = system: NCI-H460 lung
NCI-H522 lung = system: NCI-H522 lung
NCI/ADR-RES ovarian = system: NCI/ADR-RES ovarian
OVCAR-3 ovarian = system: OVCAR-3 ovarian
OVCAR-4 ovarian = system: OVCAR-4 ovarian
OVCAR-5 ovarian = system: OVCAR-5 ovarian
OVCAR-8 ovarian = system: OVCAR-8 ovarian
PC-3 prostate = system: PC-3 prostate
RPMI-8226 leukemia = system: RPMI-8226 leukemia
SF-268 CNS = system: SF-268 CNS
SF-295 CNS = system: SF-295 CNS
SF-539 CNS = system: SF-539 CNS
SK-MEL-2 melanoma = system: SK-MEL-2 melanoma
SK-MEL-28 melanoma = system: SK-MEL-28 melanoma
SK-OV-3 ovarian = system: SK-OV-3 ovarian
SN12C renal = system: SN12C renal
SNB-19 CNS = system: SNB-19 CNS
SNB-75 CNS = system: SNB-75 CNS
SR leukemia = system: SR leukemia
SW-620 colon = system: SW-620 colon
T-47D breast = system: T-47D breast
TK-10 renal = system: TK-10 renal
U251 CNS = system: U251 CNS
UACC-257 melanoma = system: UACC-257 melanoma
UACC-62 melanoma = system: UACC-62 melanoma
UO-31 renal = system: UO-31 renal

What does the source list for `CC(=O)Nc1c(Br)cc2c(c1Br)Cc1cc(Br)ccc1-2`?
GI50 (786-0 renal): 1.83 µM; TGI (786-0 renal): 3.43 µM; GI50 (A498 renal): 3.87 µM; TGI (A498 renal): 14.9 µM; GI50 (A549 NSCLC): 3.94 µM; TGI (A549 NSCLC): 14.8 µM; GI50 (ACHN renal): 3.17 µM; TGI (ACHN renal): 14.1 µM; GI50 (BT-549 breast): 2.83 µM; TGI (BT-549 breast): 13.4 µM; GI50 (CAKI-1 renal): 1.98 µM; TGI (CAKI-1 renal): 10.7 µM; GI50 (CCRF-CEM leukemia): 24.1 µM; TGI (CCRF-CEM leukemia): > 100 µM; GI50 (COLO 205 colon): 2.44 µM; TGI (COLO 205 colon): 13.1 µM; GI50 (DU-145 prostate): 6.44 µM; TGI (DU-145 prostate): 21.4 µM; GI50 (EKVX NSCLC): 0.392 µM; TGI (EKVX NSCLC): 13.8 µM; GI50 (HCC-2998 colon): 3.01 µM; TGI (HCC-2998 colon): 11.8 µM; GI50 (HCT-116 colon): 2.76 µM; TGI (HCT-116 colon): 10.9 µM; GI50 (HCT-15 colon): 12.3 µM; TGI (HCT-15 colon): > 100 µM; GI50 (HL-60(TB) leukemia): 50.5 µM; TGI (HL-60(TB) leukemia): > 100 µM; GI50 (HOP-62 NSCLC): 2.51 µM; TGI (HOP-62 NSCLC): 13.9 µM; GI50 (HOP-92 NSCLC): 0.675 µM; TGI (HOP-92 NSCLC): 22.5 µM; GI50 (HS 578T breast): 1.96 µM; TGI (HS 578T breast): 5.73 µM; GI50 (HT29 colon): 24.3 µM; TGI (HT29 colon): > 100 µM; GI50 (K-562 leukemia): 59.9 µM; TGI (K-562 leukemia): > 100 µM; GI50 (KM12 colon): 11.6 µM; TGI (KM12 colon): 55.1 µM; GI50 (LOX IMVI melanoma): 2.28 µM; TGI (LOX IMVI melanoma): 6.6 µM; GI50 (M14 melanoma): 3.7 µM; TGI (M14 melanoma): 18.3 µM; GI50 (MALME-3M melanoma): 7.26 µM; TGI (MALME-3M melanoma): 53.4 µM; GI50 (MCF7 breast): 9.29 µM; TGI (MCF7 breast): 96.1 µM; GI50 (MDA-MB-231 breast): 5.11 µM; TGI (MDA-MB-231 breast): 20.3 µM; GI50 (MDA-MB-435): 4.15 µM; TGI (MDA-MB-435): 21.1 µM; GI50 (MOLT-4 leukemia): > 100 µM; TGI (MOLT-4 leukemia): > 100 µM; GI50 (NCI-H23 lung): 3.64 µM; TGI (NCI-H23 lung): 16 µM; GI50 (NCI-H460 lung): 2.94 µM; TGI (NCI-H460 lung): 11.4 µM; GI50 (NCI-H522 lung): 27 µM; TGI (NCI-H522 lung): > 100 µM; GI50 (NCI/ADR-RES ovarian): 3.38 µM; TGI (NCI/ADR-RES ovarian): 13.6 µM; GI50 (OVCAR-3 ovarian): 8.42 µM; TGI (OVCAR-3 ovarian): 21.1 µM; GI50 (OVCAR-4 ovarian): 2.47 µM; TGI (OVCAR-4 ovarian): 6.6 µM; GI50 (OVCAR-5 ovarian): 12 µM; TGI (OVCAR-5 ovarian): 27 µM; GI50 (OVCAR-8 ovarian): 4.62 µM; TGI (OVCAR-8 ovarian): 18.8 µM; GI50 (PC-3 prostate): 10.3 µM; TGI (PC-3 prostate): 26.2 µM; GI50 (RPMI-8226 leukemia): 50.5 µM; TGI (RPMI-8226 leukemia): > 100 µM; GI50 (SF-268 CNS): 9.04 µM; TGI (SF-268 CNS): 41 µM; GI50 (SF-295 CNS): 1.61 µM; TGI (SF-295 CNS): 3.76 µM; GI50 (SF-539 CNS): 13.6 µM; TGI (SF-539 CNS): 33.2 µM; GI50 (SK-MEL-2 melanoma): 12.6 µM; TGI (SK-MEL-2 melanoma): 32.7 µM; GI50 (SK-MEL-28 melanoma): 5.54 µM; TGI (SK-MEL-28 melanoma): 24.4 µM; GI50 (SK-OV-3 ovarian): 4.22 µM; TGI (SK-OV-3 ovarian): 17.2 µM; GI50 (SN12C renal): 4.67 µM; TGI (SN12C renal): 18.9 µM; GI50 (SNB-19 CNS): 12.8 µM; TGI (SNB-19 CNS): 43 µM; GI50 (SNB-75 CNS): 1.24 µM; TGI (SNB-75 CNS): 3.31 µM; GI50 (SR leukemia): 6.87 µM; TGI (SR leukemia): 31.1 µM; GI50 (SW-620 colon): 3.97 µM; TGI (SW-620 colon): 15.6 µM; GI50 (T-47D breast): 3.34 µM; TGI (T-47D breast): > 100 µM; GI50 (TK-10 renal): 12.4 µM; TGI (TK-10 renal): 26.1 µM; GI50 (U251 CNS): 3.32 µM; TGI (U251 CNS): 12.4 µM; GI50 (UACC-257 melanoma): 19.3 µM; TGI (UACC-257 melanoma): > 100 µM; GI50 (UACC-62 melanoma): 11.1 µM; TGI (UACC-62 melanoma): > 100 µM; GI50 (UO-31 renal): 0.581 µM; TGI (UO-31 renal): 13.7 µM
